Experiments:
CD47/SIRPα interaction = biological target: T1, CD47/SIRPα interaction (Homo sapiens, UniProt P78324); assay: Blocking assay by flow cytometry, preliminary screening at a single concentration, CD47/SIRPα; format: binding; conditions: preliminary test, single concentration of 100 μM
T1 construct: purchased ACRO Biosystem SIA-H5251; host or cells: CHOK1-CD47 cells (lenti-viral transfection)
Procedure: (§1) The abilities of small molecule inhibitors (SMIs) (purchased from TargetMol, Shanghai, China) to block the binding of SIRPα protein to CHOK1-CD47 cells or PVR protein to CHOK1-TIGIT cells were determined by flow cytometry, as previously reported. The SMIs at indicated concentrations were incubated with Fc-tagged SIRPα or PVR protein for 30 min at 4°C, followed by incubating with the indicated cells for another 30 min. Human SIRPα protein (SIA-H5251, ACRO Biosystem, Beijing, China), mouse SIRPα protein (SIA-M5258, ACRO Biosystem, Beijing, China), human PVR protein (CD5-H82F6, ACRO Biosystem, Beijing, China), and mouse PVR protein (50259-M03H, Sino Biological, Beijing, China) were used. PE-conjugated anti-human IgG antibody was used to detect the Fc protein bind to cells. Cells incubated with the Fc proteins and anti-human IgG antibody without the SMIs serve as the positive control. The mean fluorescent intensity (MFI) of each sample was detected and recorded by a flow cytometry. The blocking efficacy of the SMIs was calculated as the equation: (MFI of the positive control-MFI of the SMI)/MFI of the positive control × 100%.
The small molecule inhibitor could not only bind to the target; most importantly, it should interfere with the receptor–ligand interactions. Subsequently, the candidate inhibitors were screened by the blocking assays with the established CD47 and TIGIT over-expressing cell lines. The test was initialed with a preliminary screening of the candidates with a single concentration (Figure 2D). Generally, the SMI blocking efficacy to the CD47/SIRPα interaction was much higher than that of the TIGIT/PVR. […] Therefore, the SMI-F11 and SMI-F17 may exert dual blocking effects in the CD47/SIRPα and TIGIT/PVR pathways. Blocking assays with a concentration gradient of the SMI were further performed to validate the preliminary screening. […] The similar blocking assays with the mouse CD47 and TIGIT over-expressing cells were also performed. […] Considering that most pairs of the immune checkpoints interact with the corresponding ligand in parallel forms, the blocking assays with the PD-1/PD-L1 interaction system was also conducted to test the specificity.

mouse TIGIT/PVR = biological target: T2, mouse TIGIT/PVR (Mus musculus, UniProt F6V4I7); assay: Blocking assay, mouse PVR protein binding to CHOK1-mTIGIT cells; conditions: concentration gradient; read-out: IC50, blocking mouse TIGIT/PVR (mPVR binding)
T2 construct: purchased Sino Biological 50259-M03H; host or cells: soluble protein purchased; TIGIT on CHOK1-mTIGIT cells (lenti-viral transfection)
Procedure: as §1, with “(SIA-[…],” for “(SIA-H5251,”, “(SIA-[…],” for “(SIA-M5258,”, “(CD5-[…],” for “(CD5-H82F6,”, “(50259-[…],” for “(50259-M03H,”

T1 sequence (P78324 31-370 limits assumed): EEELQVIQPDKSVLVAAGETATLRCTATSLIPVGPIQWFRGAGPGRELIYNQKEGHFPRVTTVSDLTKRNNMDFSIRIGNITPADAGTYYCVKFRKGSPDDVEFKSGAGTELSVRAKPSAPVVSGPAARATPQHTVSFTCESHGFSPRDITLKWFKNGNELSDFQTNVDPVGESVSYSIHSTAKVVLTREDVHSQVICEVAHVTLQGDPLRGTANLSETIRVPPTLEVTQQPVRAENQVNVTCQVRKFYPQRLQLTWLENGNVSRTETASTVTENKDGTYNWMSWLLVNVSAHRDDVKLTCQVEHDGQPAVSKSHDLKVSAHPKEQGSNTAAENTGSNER
T2 sequence (F6V4I7 29-408): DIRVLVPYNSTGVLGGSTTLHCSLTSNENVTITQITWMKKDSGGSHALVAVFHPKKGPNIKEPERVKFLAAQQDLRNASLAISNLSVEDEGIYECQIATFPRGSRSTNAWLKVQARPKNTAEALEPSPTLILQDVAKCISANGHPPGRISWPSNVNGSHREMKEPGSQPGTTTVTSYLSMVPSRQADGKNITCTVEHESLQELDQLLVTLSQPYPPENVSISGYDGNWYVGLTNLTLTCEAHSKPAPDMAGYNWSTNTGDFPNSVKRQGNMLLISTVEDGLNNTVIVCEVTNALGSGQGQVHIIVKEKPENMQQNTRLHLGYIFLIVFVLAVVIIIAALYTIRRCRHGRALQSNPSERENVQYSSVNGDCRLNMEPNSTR

For `CC1=C(C(=O)OC(C)C)C(c2cccc([N+](=O)[O-])c2)C(C(=O)OC2CN(C(c3ccccc3)c3ccccc3)C2)=C(N)N1` (centres unmarked) [Azelnidipine], the “blocking efficacy, CD47/SIRPα interaction” value (CD47/SIRPα interaction) was “more than 50%” and the IC50 (mouse TIGIT/PVR) was ~82 µM.
